Results as given in patent US20070054868A1, “Synergistic polyphenol compounds, compositions thereof, and uses thereof” (The Trustees of Columbia University in the City of New York, priority 2005, published 2007).

Test system: EGFR, ERK1, ERK2, and AKT
Experiment: Phosphorylation of signaling proteins in HT29 cells
Assay type: cell-based, human
Method: These effects were detected with as little as […] of EGCG, and within 5 minutes. Phosphorylation of EGFR, ERK1, ERK2, and AKT were suppressed in cells treated with methyl-β-cyclodextrin, which depletes plasma membrane cholesterol. […] In addition, the inhibitory effect of EGCG on phosphorylation of EGFR was not blocked by the addition of cholesterol on the growth medium. These findings provide evidence that EGCG can alter membrane domain organization in colon cancer cells ant that this is not due to cholesterol depletion. It was noted that pre-treatment of the cells with EGCG or Poly E inhibited the binding of Alexa 488-labeled EGF to the cell surface receptor EGFR.

## methyl-β-cyclodextrin [reference compound]
  phosphorylation of EGFR, ERK1, ERK2, and AKT: suppressed
